“And” between values parts separate entries of the source, which are not always exact repeats. Equal entries are not always repeated.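 These data come from cells grown in 96-well plates and exposed to compound for 48 hours at five concentrations. GI50 = concentration required for 50% inhibition of growth. TGI denotes the concentration required for complete inhibition of growth.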

Data on six compounds can be found in PubChem BioAssay (NCI).

Some test systems named below: SNB-75 CNS; MDA-MB-435; SNB-19 CNS; HCC-2998 colon; SF-539 CNS; CAKI-1 renal; IGROV1 ovarian; NCI-H226 lung; U251 CNS; SK-MEL-5 melanoma.
What all share (test): DTP human tumour cell line panel, 48 h

What is called GI50 is the concentration that inhibits growth by half. The TGI is the concentration giving total growth inhibition. Turning to `C#Cc1cccc(Nc2nc(Cl)nc3cc(NC(=O)CCl)ccc23)c1`, the GI50 is 1.13 µM in the assay on SNB-75 CNS; 1.04 µM in the assay on MDA-MB-435; 1.68 µM in the assay on SNB-19 CNS; 0.7 µM in the assay with HCC-2998 colon; 2.36 µM in the assay with SF-539 CNS; 1.85 µM in the assay on CAKI-1 renal. Further, the GI50 in the assay with IGROV1 ovarian is 0.5 µM; in the assay on NCI-H226 lung, 1.61 µM; in the assay on U251 CNS, 0.526 µM; in the assay on SK-MEL-5 melanoma, 1.04 µM. Also, the TGI was 5.13 µM with SNB-75 CNS; 3.83 µM with MDA-MB-435; 4.59 µM with SNB-19 CNS; 2.02 µM with HCC-2998 colon; 5.59 µM in the assay with SF-539 CNS; 5.17 µM in the assay with CAKI-1 renal. In addition, the TGI with IGROV1 ovarian came out at 1.12 µM; with NCI-H226 lung, 5.27 µM; in the assay on U251 CNS it was 1.14 µM; in the assay on SK-MEL-5 melanoma, 3.36 µM.
Consider `C1CN(c2nnc(N3CCC3)nn2)C1`, for which the concentration for total growth inhibition (TGI) in the assay with SNB-75 CNS is over 46.4 µM; in the assay with MDA-MB-435, 32.4 µM; in the assay on SNB-19 CNS it was over 79.5 µM; with HCC-2998 colon it was over 100 µM; with SF-539 CNS it was 77.6 µM; in the assay on CAKI-1 renal, over 100 µM. The TGI in the assay with IGROV1 ovarian is over 100 µM; with NCI-H226 lung, over 100 µM; with U251 CNS it was over 92.6 µM; in the assay on SK-MEL-5 melanoma it was 73.3 µM.
Turning to `CCCCCCSSC(=S)N(CC)CC`, the GI50 in the assay on SNB-75 CNS was 16.8 µM; with MDA-MB-435 it was 22.1 µM; in the assay with SNB-19 CNS, 40.3 µM; with HCC-2998 colon it was 29.7 µM; in the assay with SF-539 CNS it was 17.5 µM; with CAKI-1 renal it was 16.3 µM. Further, the GI50 in the assay on IGROV1 ovarian is 31.5 µM; with NCI-H226 lung, 35.4 µM; with U251 CNS, 14.2 µM; in the assay on SK-MEL-5 melanoma, 14.6 µM. The TGI in the assay with SNB-75 CNS is 47.6 µM; with MDA-MB-435, 57.9 µM; in the assay with SNB-19 CNS, over 100 µM; with HCC-2998 colon it was 91.5 µM; with SF-539 CNS, 43.3 µM; with CAKI-1 renal, 36.1 µM. In addition, the TGI is 86.7 µM with IGROV1 ovarian, over 100 µM with NCI-H226 lung, 30.6 µM in the assay with U251 CNS and 31.6 µM in the assay with SK-MEL-5 melanoma.
With `CCCCCCCCCCCCC(O)c1ccco1` (stereo not given), the GI50 in the assay with SNB-75 CNS is 21.1 µM; in the assay on MDA-MB-435 it was 19.4 µM; with SNB-19 CNS it was 25.9 µM; with HCC-2998 colon it was 18.4 µM; with SF-539 CNS, 20.9 µM; in the assay with CAKI-1 renal, 18 µM. Also, the GI50 in the assay on IGROV1 ovarian was 21.1 µM; in the assay on NCI-H226 lung, 20.8 µM; in the assay on U251 CNS it was 16.2 µM; in the assay on SK-MEL-5 melanoma, 14.8 µM. Also, the total growth inhibition concentration (TGI) in the assay with SNB-75 CNS is 39 µM; in the assay on MDA-MB-435 it was 35.6 µM; in the assay with SNB-19 CNS it was 70.7 µM; in the assay with HCC-2998 colon, 32.3 µM; in the assay on SF-539 CNS, 38.7 µM; in the assay on CAKI-1 renal, 33.4 µM. Further, the TGI in the assay with IGROV1 ovarian turned out to be 42.7 µM; with NCI-H226 lung it was 37.9 µM; with U251 CNS it was 29.7 µM; in the assay with SK-MEL-5 melanoma, 28.2 µM.
In the case of `Cc1c(C#N)cccc1[C@@H](C)Nc1nnc(C)c2cnc(N3CCOCC3)cc12`, the GI50 in the assay on SNB-75 CNS was 17.7 µM; with MDA-MB-435 it was 18.3 µM; in the assay on SNB-19 CNS, 25.3 µM; in the assay with HCC-2998 colon, 53.9 µM; with SF-539 CNS, 43.1 µM; with CAKI-1 renal, 0.7 µM. In addition, the GI50 in the assay on IGROV1 ovarian was 24 µM; in the assay on NCI-H226 lung, 23.2 µM; with U251 CNS, 29.8 µM; with SK-MEL-5 melanoma it was 10.1 µM. Further, the TGI with SNB-75 CNS was over 100 µM; in the assay with MDA-MB-435, 49.1 µM; with SNB-19 CNS it was over 100 µM; in the assay on HCC-2998 colon it was over 100 µM; in the assay with SF-539 CNS, over 100 µM; in the assay on CAKI-1 renal, over 100 µM. For the same compound, the TGI with IGROV1 ovarian is over 100 µM; in the assay with NCI-H226 lung, over 100 µM; in the assay on U251 CNS, over 100 µM; in the assay on SK-MEL-5 melanoma, 21.9 µM.
Take `COc1ccc(-c2cc3c(C)nc(N)nc3n(C3CCC(OCCO)CC3)c2=O)cn1` (stereo not given): the GI50 with SNB-75 CNS was 0.0151 µM and < 0.0117 µM; with MDA-MB-435, 0.0985 µM and 0.0842 µM; in the assay with SNB-19 CNS, 0.318 µM and 0.28 µM; with HCC-2998 colon, 0.0941 µM and 0.13 µM; in the assay with SF-539 CNS, 0.131 µM and 0.126 µM; in the assay with CAKI-1 renal, 0.0379 µM and 0.0866 µM. Besides, the concentration for 50% growth inhibition (GI50) in the assay with IGROV1 ovarian is 0.021 µM and 0.0199 µM; in the assay with NCI-H226 lung, 0.0742 µM and 0.105 µM; in the assay with U251 CNS, 0.181 µM and 0.162 µM; with SK-MEL-5 melanoma, 0.144 µM and 0.103 µM. Also, the TGI in the assay on SNB-75 CNS is 0.137 µM and 0.177 µM; in the assay with MDA-MB-435, 0.941 µM and 0.564 µM; with SNB-19 CNS, 2.84 µM and 3.43 µM; in the assay with HCC-2998 colon it was 1.8 µM and 1.71 µM; in the assay on SF-539 CNS it was 0.552 µM and 0.461 µM; with CAKI-1 renal, 0.38 µM and 0.575 µM. The TGI was 0.0983 µM and 0.092 µM in the assay with IGROV1 ovarian; > 2.19 µM and 0.946 µM in the assay on NCI-H226 lung; 2.75 µM and 1.9 µM with U251 CNS; 0.543 µM and 0.65 µM in the assay on SK-MEL-5 melanoma.
